Assay results as given in ChEMBL document CHEMBL1125639, “Synthesis and resolution of (+-)-7-chloro-8-hydroxy-1-(3'-iodophenyl)-3-methyl-2,3,4,5-tetrahydro- 1H-3- benzazepine (TISCH): a high affinity and selective iodinated ligand for CNS D1 dopamine receptor” (J Med Chem, 1991).

Species: Rattus norvegicus
Format: functional, Striatum, Membrane
Description: Inhibition constant of compound on R-(+)-125[I]-8 radioligand binding to rat striatal membranes

Row | SMILES | Ki [nM]
1 | CN1CCc2cc(Cl)c(O)cc2C(c2cccc(I)c2)C1 (racemic) | 1.07
2 | C=CCN1CC[C@]23c4c5ccc(O)c4O[C@H]2C(=O)CC[C@@]3(O)[C@H]1C5 [NALOXONE] | > 6000
3 | NCCc1c[nH]c2ccc(O)cc12 [SEROTONIN] | > 5000
4 | CN1CCc2cc(Cl)c(O)cc2[C@@H](c2ccccc2)C1 [SCH-23390] | 0.28
